Measurements taken from ChEMBL document CHEMBL5465560, “Selectivity Literature for EUbOPEN Chemogenomic Library” (2024).
Blank lines part the entries; values can stand above or below the molecule they belong to.

How the values were obtained:
[1] = target: Peroxisome proliferator-activated receptor gamma (Homo sapiens) (UniProt P37231); assay: Selectivity interaction (Eurofins CEREP Diversity Profile (receptors and ion channels)) EUB0000279b PPARG; conditions: at 10 µM
[2] = target: T1, Kinase suppressor of Ras 2 (Homo sapiens) (UniProt Q6VAB6); assay: Selectivity interaction (ActivX KiNativ screen (kinase selectivity in THP-1 cell lysates)) EUB0000639a KSR2; assay type: subcellular; conditions: lysate
T1 sequence (whole entry): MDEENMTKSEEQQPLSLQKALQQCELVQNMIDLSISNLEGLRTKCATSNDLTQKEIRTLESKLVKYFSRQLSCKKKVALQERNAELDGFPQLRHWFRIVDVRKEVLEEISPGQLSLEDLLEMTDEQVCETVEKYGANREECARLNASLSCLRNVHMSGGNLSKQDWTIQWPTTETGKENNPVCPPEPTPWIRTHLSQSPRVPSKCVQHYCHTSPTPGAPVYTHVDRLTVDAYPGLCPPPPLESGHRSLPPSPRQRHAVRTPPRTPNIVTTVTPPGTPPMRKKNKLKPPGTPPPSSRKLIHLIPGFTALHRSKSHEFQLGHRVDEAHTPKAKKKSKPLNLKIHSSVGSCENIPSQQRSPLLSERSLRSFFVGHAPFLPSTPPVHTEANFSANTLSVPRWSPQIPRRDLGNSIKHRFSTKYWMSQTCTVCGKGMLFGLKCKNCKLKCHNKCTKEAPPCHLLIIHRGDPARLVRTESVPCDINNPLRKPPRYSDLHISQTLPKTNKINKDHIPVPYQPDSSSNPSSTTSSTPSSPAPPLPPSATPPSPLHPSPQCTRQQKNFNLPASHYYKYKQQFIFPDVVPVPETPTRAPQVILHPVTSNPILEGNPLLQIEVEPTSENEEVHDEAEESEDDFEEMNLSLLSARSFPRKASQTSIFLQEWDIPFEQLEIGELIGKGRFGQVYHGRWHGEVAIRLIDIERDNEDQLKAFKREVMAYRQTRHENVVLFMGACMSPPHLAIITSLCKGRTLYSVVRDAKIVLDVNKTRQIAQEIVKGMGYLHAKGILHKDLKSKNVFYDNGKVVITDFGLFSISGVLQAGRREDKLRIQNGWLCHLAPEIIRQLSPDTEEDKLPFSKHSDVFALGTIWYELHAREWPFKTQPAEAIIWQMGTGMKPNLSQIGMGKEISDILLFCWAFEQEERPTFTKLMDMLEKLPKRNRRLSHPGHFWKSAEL

[3] = target: T2, Serine/threonine-protein kinase ULK2 (Homo sapiens) (UniProt Q8IYT8); assay: Selectivity interaction (KinomeScan (DiscoverX)) EUB0000229b ULK2; conditions: at 10 µM
T2 sequence (whole entry): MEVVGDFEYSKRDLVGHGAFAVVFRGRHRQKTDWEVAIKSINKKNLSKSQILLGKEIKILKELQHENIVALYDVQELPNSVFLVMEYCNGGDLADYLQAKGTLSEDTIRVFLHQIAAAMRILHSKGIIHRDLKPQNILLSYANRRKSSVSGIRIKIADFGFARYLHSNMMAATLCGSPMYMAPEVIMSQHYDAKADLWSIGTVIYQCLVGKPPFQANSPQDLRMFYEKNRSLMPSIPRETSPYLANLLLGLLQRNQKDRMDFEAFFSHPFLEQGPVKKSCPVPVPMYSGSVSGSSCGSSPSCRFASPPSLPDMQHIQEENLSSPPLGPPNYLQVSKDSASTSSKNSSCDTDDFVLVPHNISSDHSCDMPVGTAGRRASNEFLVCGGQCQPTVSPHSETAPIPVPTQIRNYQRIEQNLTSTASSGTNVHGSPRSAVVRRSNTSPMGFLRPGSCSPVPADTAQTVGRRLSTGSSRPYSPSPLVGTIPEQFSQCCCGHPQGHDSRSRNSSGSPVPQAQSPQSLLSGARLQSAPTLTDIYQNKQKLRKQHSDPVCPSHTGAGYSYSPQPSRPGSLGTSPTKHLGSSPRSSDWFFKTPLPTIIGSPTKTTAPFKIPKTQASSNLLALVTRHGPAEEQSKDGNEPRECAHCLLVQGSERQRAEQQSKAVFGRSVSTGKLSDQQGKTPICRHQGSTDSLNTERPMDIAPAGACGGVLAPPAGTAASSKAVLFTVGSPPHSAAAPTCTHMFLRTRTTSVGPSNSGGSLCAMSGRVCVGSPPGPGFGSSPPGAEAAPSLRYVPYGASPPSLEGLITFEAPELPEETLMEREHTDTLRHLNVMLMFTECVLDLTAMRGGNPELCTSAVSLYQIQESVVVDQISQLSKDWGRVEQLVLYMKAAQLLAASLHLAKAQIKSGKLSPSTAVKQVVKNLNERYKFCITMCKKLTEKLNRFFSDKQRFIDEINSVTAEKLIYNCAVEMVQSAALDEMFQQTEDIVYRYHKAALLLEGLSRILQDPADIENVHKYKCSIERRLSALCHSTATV

[4] = target: T2, Serine/threonine-protein kinase ULK2 (Homo sapiens); assay: Selectivity interaction (KinomeScan (DiscoverX)) EUB0000666a ULK2; conditions: at 10 µM
[5] = system: T3, Discoidin domain-containing receptor 2 (Homo sapiens), Q16832 [T654M]; assay: Selectivity interaction (LanthaScreen Eu Kinase Binding Assay) EUB0001632a DDR2; conditions: at 10 µM
T3 sequence (whole entry): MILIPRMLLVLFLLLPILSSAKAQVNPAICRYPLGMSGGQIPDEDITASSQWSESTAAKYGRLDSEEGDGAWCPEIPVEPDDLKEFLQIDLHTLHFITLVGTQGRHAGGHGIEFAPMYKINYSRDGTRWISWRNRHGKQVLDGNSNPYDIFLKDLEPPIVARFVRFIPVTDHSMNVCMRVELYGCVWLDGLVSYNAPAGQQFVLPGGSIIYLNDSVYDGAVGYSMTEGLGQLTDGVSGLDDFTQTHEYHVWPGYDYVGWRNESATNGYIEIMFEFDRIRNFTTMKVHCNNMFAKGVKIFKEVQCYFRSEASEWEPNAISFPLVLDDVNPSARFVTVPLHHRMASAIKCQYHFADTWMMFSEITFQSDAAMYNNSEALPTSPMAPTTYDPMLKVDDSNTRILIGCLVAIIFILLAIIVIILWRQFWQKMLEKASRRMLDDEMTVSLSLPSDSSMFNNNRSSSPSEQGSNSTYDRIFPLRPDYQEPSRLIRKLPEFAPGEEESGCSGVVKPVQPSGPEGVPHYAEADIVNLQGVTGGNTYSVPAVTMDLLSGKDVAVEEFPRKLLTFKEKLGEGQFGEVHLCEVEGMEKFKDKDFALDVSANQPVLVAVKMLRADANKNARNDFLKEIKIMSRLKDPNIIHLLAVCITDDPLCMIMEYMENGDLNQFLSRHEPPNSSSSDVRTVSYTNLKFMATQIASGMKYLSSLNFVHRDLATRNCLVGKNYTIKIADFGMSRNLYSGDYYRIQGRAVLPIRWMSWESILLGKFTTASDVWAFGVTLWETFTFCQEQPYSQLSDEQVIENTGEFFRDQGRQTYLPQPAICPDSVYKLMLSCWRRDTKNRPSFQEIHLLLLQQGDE

Chain of Peroxisome proliferator-activated receptor gamma (Homo sapiens) (P37231 whole entry): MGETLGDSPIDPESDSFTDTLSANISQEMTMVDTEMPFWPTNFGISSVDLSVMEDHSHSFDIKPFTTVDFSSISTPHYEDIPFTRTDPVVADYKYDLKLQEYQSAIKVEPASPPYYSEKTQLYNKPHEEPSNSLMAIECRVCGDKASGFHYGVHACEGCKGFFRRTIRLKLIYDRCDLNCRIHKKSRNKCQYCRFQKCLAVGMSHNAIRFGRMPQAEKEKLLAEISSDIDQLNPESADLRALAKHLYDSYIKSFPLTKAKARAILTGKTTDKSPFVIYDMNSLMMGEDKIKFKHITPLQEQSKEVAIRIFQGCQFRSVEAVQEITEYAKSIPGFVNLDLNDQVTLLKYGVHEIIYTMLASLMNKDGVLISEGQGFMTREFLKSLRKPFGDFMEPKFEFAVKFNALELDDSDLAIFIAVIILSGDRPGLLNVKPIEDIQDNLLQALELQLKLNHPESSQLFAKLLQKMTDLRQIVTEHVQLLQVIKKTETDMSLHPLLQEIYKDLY

% of control [1]: 105%
SMILES: CC(=O)c1cc(-c2ccccc2OCC2CC2)c2ncccn12

% of inhibition ([2]; at 0.01 µM): 2.4%
% of inhibition ([2]; at 0.2 µM): -8.6%
% of inhibition ([2]; at 1 µM): -32.8%
% of inhibition ([2]; at 5 µM): -57.9%
SMILES: CC[C@@H]1[C@H](F)C(=O)N[C@@H]1COc1nccc2cc(C(N)=O)c(OC)cc12 [ZIMLOVISERTIB]

SMILES: COc1cc(N(C)c2ccnc3ccc(C(F)(F)F)cc23)cc(OC)c1OC
% binding [3]: 86%

SMILES: O=C(NOC[C@H](O)CO)c1ccc(F)c(F)c1Nc1ccc(I)cc1F
% of control [4]: 97%

% of inhibition [5]: -29.9%
SMILES: Cn1cc(-n2cnc3c(NCc4nc5cc(Cl)c(Cl)cc5[nH]4)nc(N4CCOCC4)nc32)cn1
